{
  "source": "ChEMBL document CHEMBL1201862",
  "about": "“PubChem BioAssay data set” (2004)",
  "key": {"[1]": {"assay": "Luminescence Cell-Based Dose Retest to Confirm Inhibitors of Cancer Stem Cells. [Related pubchem assays (depositor defined):AID2717, AID2721]", "type": "functional", "conditions": "Homo sapiens"}, "HEK293 [2]": {"tested_on": "HEK293", "assay": "NOD2 signaling inhibitors in MDP-stimulated cells, cell-based, uHTS, luminescence (AID 2001)", "type": "functional", "conditions": "Homo sapiens"}, "HEK293 [3]": {"tested_on": "HEK293", "assay": "NOD1 signaling inhibitors, primary screen, cell-based, luminescence, uHTS (AID 1578)", "type": "functional", "conditions": "Homo sapiens"}, "[4]": {"molecular_target": "T1, Acyl-homoserine lactone acylase PvdQ (Pseudomonas aeruginosa (strain LESB58), UniProt Q9I194)", "T1 sequence (Q9I194 whole entry)": "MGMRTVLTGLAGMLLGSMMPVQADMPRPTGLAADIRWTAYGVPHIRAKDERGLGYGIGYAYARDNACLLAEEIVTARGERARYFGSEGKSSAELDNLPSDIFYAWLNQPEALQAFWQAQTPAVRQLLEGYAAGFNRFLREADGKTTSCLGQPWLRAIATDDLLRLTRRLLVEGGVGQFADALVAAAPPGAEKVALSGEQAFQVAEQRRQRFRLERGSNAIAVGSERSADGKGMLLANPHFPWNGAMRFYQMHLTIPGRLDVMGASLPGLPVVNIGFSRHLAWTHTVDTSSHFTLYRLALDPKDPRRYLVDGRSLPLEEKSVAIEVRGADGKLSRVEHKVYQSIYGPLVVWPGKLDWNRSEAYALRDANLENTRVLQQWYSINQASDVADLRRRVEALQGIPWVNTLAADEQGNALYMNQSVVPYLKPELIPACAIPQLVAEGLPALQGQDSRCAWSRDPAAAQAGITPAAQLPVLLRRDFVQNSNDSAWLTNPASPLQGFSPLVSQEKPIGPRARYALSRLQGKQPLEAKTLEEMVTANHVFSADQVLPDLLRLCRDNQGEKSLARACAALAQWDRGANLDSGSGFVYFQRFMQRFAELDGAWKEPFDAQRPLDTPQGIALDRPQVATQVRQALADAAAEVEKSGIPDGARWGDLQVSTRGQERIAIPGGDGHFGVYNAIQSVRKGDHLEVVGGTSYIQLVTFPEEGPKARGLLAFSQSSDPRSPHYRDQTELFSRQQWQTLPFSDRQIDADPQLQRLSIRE", "assay": "P. aeruginosa PvdQ acylase inhibitors, dose response, biochemical, fluorescence, plate reader and imaging, cherry-picks (AID 493231)"}, "HEK293 [5]": {"tested_on": "HEK293", "assay": "cells", "type": "functional, cell-based", "conditions": "Homo sapiens"}, "Protein skinhead-1": {"molecular_target": "T2, Protein skinhead-1 (Caenorhabditis elegans, UniProt P34707)", "T2 sequence (P34707 whole entry)": "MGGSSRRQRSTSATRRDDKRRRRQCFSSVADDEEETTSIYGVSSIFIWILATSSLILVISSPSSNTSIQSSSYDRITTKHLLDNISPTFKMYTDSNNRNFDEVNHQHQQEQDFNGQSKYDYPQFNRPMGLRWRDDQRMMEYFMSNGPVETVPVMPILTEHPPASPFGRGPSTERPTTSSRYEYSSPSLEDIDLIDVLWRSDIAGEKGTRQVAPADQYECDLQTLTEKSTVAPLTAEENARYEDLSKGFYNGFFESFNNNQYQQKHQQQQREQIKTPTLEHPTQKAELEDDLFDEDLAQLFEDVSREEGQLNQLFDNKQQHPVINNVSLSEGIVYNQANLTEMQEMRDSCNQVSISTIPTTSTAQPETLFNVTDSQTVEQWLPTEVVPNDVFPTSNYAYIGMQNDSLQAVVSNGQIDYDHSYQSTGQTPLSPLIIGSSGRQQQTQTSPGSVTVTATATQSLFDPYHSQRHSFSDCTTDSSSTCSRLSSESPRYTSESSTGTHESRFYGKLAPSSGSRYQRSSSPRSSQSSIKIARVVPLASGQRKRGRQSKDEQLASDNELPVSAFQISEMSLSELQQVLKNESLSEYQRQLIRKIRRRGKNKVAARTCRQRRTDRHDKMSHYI", "type": "functional"}, "HEK293 [6]": {"tested_on": "HEK293", "assay": "cells", "type": "functional, cell-based", "conditions": "Homo sapiens", "remark": "listed apart in the source"}, "[7]": {"molecular_target": "DNA dC->dU-editing enzyme APOBEC-3G (Homo sapiens, UniProt Q9HC16)", "sequence (Q9HC16 whole entry)": "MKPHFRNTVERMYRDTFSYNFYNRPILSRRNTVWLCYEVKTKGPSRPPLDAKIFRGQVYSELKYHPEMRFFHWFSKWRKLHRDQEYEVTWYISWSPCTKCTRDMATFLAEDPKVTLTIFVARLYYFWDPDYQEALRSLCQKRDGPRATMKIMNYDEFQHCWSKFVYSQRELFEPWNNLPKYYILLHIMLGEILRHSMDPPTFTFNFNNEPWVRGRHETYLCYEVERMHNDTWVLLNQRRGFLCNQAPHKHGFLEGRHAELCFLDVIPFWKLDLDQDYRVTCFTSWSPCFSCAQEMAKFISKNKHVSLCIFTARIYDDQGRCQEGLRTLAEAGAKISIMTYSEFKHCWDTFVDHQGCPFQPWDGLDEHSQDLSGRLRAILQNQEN", "assay": "Dose Response confirmation of small molecule APOBEC3G DNA Deaminase Inhibitors via a fluorescence-based single-stranded DNA deaminase assay. [Related pubchem assays (depositor defined):AID493012, AID493028]", "type": "functional"}, "[8]": {"molecular_target": "DNA dC->dU-editing enzyme APOBEC-3A (Homo sapiens, UniProt P31941)", "sequence (P31941 whole entry)": "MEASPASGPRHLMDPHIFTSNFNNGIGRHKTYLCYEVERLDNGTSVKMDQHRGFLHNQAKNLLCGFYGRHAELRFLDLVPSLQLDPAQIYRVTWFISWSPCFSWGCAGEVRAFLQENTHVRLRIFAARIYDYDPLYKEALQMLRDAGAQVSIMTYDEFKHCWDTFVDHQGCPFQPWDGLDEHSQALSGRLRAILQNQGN", "assay": "APOBEC3A DNA deaminase inhibitors, dose response, biochemical (AID 504722)", "type": "functional"}, "SUMO-activating enzyme": {"molecular_target": "SUMO-activating enzyme (Homo sapiens, UniProt Q9UBT2)", "sequence (Q9UBE0 whole entry)": "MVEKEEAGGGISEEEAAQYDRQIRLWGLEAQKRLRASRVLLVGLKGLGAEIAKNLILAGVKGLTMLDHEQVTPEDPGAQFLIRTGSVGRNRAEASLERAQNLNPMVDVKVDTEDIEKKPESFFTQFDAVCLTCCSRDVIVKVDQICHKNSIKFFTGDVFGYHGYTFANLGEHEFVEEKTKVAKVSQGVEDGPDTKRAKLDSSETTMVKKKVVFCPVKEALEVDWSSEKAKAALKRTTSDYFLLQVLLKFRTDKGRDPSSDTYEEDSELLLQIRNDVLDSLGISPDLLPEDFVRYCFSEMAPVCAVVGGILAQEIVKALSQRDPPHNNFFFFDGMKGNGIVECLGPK", "sequence (Q9UBT2 whole entry)": "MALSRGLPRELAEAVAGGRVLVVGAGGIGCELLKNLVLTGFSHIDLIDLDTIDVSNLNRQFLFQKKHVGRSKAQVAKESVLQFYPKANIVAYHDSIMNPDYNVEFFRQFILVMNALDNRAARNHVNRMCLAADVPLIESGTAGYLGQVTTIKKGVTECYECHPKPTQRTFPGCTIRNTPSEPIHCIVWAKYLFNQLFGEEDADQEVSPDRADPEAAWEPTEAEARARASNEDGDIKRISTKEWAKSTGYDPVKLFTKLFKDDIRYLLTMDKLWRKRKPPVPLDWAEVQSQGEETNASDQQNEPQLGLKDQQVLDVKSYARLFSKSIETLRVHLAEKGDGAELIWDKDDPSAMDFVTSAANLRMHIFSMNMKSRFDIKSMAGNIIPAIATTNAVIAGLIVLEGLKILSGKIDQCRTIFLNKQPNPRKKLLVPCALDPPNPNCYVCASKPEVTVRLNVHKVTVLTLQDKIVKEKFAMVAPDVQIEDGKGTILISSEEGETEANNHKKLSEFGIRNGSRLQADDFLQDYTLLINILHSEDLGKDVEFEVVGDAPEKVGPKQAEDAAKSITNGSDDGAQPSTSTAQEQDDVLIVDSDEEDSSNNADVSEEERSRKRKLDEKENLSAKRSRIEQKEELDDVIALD", "assay": "SUMOylation inhibitor hit validation, confirmation, SUMOylation inhibitor project, biochemical, AlphaScreen (AID 2018)", "type": "functional"}, "Cytochrome P450 3A4": {"molecular_target": "Cytochrome P450 3A4 (Homo sapiens, UniProt P08684)", "sequence (P08684 whole entry)": "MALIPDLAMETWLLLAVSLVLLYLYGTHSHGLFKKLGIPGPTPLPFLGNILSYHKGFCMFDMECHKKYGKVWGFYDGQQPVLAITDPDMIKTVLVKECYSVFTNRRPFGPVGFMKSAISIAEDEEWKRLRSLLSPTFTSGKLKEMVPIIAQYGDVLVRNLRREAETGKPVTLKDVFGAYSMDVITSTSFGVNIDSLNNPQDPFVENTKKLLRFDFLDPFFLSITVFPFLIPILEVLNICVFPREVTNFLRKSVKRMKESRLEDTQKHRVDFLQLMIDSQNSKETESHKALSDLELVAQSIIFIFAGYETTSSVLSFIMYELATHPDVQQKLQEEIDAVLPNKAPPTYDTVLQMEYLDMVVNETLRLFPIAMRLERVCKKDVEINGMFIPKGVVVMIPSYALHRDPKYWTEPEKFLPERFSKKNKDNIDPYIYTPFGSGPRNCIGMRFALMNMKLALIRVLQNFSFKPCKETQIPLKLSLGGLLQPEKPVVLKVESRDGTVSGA"}, "[9]": {"molecular_target": "T3, Calpain-2 catalytic subunit (Sus scrofa, UniProt P43367)", "T3 sequence (P43367 whole entry)": "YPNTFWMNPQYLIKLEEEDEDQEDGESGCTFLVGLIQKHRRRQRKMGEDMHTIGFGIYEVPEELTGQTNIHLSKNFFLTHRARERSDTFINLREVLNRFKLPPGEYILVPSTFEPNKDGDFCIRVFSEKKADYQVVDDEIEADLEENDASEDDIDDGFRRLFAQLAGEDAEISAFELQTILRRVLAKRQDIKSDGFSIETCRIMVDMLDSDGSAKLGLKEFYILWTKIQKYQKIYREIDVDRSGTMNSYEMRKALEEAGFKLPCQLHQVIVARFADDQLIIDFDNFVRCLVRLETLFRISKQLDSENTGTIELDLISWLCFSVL", "assay": "pig calpain II inhibitor potency, dose response, biochemical, fluorogenic peptide substrate (AID 1420)", "type": "functional"}, "Cytochrome P450 1A2": {"molecular_target": "T4, Cytochrome P450 1A2 (Homo sapiens, UniProt P05177)", "T4 sequence (P05177 whole entry)": "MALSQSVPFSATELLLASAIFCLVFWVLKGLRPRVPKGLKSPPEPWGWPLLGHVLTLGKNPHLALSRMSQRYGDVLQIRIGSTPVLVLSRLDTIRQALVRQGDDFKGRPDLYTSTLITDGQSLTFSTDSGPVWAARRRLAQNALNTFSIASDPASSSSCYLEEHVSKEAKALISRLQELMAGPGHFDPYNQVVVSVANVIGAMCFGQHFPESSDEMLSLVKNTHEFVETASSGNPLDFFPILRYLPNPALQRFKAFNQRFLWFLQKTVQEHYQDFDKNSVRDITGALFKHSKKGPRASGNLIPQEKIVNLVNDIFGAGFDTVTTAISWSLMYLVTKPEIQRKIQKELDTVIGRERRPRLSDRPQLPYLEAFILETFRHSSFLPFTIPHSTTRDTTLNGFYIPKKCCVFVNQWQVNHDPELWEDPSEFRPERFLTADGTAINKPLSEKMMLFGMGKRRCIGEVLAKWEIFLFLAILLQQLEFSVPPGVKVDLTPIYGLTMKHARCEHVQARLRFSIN"}, "Cytochrome P450 2C9": {"molecular_target": "Cytochrome P450 2C9 (Homo sapiens, UniProt P11712)", "sequence (P11712 whole entry)": "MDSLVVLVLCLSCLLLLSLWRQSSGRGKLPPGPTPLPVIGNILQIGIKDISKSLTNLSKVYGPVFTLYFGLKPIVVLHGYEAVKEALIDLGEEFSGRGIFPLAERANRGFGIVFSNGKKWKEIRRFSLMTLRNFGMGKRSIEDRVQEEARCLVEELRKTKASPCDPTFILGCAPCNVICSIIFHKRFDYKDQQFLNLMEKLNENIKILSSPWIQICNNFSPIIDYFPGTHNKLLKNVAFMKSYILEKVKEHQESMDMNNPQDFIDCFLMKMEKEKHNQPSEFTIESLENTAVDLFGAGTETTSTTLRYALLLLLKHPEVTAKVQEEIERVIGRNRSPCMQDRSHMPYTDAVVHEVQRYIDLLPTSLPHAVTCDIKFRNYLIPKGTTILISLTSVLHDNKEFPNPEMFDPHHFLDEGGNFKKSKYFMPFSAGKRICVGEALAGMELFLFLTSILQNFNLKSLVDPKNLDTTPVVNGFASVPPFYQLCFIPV"}, "[10]": {"molecular_target": "Neurotensin receptor type 1 (Homo sapiens, UniProt P30989)", "sequence (P30989 whole entry)": "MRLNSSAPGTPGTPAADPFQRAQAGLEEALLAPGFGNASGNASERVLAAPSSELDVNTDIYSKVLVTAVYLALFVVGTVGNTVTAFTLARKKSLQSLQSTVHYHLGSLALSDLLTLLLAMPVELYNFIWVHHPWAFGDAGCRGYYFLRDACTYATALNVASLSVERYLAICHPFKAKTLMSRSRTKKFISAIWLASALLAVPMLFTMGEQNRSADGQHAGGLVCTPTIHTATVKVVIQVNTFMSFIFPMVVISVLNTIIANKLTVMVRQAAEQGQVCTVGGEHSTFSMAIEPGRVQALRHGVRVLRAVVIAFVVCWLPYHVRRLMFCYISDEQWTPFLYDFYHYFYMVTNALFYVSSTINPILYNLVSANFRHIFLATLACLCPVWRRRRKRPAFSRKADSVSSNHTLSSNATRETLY", "type": "functional"}, "Insulin-degrading enzyme": {"molecular_target": "T5, Insulin-degrading enzyme (Homo sapiens, UniProt P14735)", "T5 sequence (P14735 whole entry)": "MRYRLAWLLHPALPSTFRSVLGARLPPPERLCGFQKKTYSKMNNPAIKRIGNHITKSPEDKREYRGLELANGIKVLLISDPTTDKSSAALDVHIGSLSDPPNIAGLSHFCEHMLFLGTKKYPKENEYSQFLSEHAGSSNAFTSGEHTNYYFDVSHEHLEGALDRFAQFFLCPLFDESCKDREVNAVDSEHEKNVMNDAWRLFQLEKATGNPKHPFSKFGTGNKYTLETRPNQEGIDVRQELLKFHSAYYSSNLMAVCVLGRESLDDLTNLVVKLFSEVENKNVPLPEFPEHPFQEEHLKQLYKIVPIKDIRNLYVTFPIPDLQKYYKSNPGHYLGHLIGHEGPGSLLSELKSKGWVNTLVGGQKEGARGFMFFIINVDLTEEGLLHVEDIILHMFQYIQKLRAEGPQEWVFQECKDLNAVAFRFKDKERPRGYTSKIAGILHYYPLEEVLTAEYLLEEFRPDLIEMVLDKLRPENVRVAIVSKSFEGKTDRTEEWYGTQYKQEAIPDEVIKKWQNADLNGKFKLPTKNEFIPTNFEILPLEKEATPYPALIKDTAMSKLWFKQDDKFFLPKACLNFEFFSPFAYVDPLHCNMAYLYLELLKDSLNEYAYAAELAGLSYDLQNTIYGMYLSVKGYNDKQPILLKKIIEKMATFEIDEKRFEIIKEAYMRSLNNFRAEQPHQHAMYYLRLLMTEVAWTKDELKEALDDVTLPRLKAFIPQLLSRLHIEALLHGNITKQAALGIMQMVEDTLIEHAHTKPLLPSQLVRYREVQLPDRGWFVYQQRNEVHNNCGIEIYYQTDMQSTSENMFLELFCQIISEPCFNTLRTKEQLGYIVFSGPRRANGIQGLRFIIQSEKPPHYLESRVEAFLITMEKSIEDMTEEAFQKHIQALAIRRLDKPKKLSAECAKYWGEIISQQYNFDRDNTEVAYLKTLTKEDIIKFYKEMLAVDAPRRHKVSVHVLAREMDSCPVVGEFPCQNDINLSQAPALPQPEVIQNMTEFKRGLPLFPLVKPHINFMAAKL", "assay": "Dose Response: Fluorescence polarization-based cell-based high throughput dose response assay for inhibitors of insulin-degrading enzyme (IDE). [Related pubchem assays: 434962 (Primary screen (IDE inhibitors in singlicate)), 449730 (Counterscreen (Cytotoxicity in triplicate)), 435028 (Confirmation (IDE inhibitors in triplicate)), 434984 (Summary …", "type": "functional"}, "[11]": {"assay": "Counterscreen for IDE inhibitors: Luminescence-based cell-based high throughput dose response assay to identify compounds that are cytotoxic to HEK cells. [Related pubchem assays: 434962 (Primary screen (IDE inhibitors in singlicate)), 449730 (Counterscreen (Cytotoxicity in triplicate)), 435028 (Confirmation (IDE inhibitors in triplicate)) …", "type": "functional", "conditions": "HEK293"}, "[12]": {"assay": "microbe, parasite or virus in culture", "type": "functional", "conditions": "Mycobacterium tuberculosis"}, "[13]": {"assay": "nonselective inhibitors of cellular cAMP signaling, dose response, counter-screen for MC4R biased antagonist project, cell-based, TR-FRET cAMP detection (AID 602305);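 note: U2OS cells stimulated with forskolin near its EC80 as the cAMP inducer; potency is for inhibition of forskolin-stimulated cAMP signaling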", "type": "functional"}, "Melanocortin receptor 4": {"molecular_target": "Melanocortin receptor 4 (Homo sapiens, UniProt P32245)", "sequence (P32245 whole entry)": "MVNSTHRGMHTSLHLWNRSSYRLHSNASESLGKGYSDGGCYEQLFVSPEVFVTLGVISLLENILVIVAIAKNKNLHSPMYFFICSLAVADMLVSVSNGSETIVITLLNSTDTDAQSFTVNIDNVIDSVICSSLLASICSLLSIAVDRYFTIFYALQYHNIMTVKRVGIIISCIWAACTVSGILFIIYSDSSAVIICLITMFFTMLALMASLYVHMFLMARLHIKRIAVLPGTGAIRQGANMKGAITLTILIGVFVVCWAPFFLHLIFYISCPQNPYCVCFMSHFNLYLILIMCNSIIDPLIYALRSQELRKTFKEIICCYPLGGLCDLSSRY", "assay": "MC4R antagonist potency on cAMP, dose response, cell-based, TR-FRET, biased antagonists (AID 602298);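 note: antagonist potency against agonist-stimulated cAMP production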", "type": "functional"}, "[14]": {"molecular_target": "Alkaline phosphatase, placental type (Homo sapiens, UniProt P05187)", "sequence (P05187 whole entry)": "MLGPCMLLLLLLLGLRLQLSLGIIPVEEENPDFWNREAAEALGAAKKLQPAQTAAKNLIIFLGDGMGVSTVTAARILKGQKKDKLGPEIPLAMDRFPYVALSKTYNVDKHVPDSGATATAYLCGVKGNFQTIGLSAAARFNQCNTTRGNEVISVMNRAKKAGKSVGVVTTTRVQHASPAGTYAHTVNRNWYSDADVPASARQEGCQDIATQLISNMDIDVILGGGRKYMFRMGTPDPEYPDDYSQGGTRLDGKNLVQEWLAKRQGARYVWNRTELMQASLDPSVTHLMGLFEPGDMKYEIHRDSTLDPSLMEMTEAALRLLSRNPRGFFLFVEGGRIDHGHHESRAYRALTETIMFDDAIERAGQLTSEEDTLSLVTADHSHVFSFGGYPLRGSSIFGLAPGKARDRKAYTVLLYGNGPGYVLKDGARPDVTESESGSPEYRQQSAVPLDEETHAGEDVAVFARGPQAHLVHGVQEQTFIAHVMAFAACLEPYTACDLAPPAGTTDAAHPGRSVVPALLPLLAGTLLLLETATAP", "assay": "PLAP enzyme inhibitors, confirmation, biochemical, luminescence (AID 1512)", "type": "functional"}},
  "note": "Active and inactive are the calls of the source.",
  "data": [
    {"compound": "Clc1ccc(Nc2ncnc3ccc(Br)cc23)cc1", "values": [
      {"measurement": "AC50", "setting": "[1]", "result": "4.4 µM (active)"},
      {"measurement": "IC50", "setting": "HEK293 [2]", "result": "1.47 µM (active)"},
      {"measurement": "EC50", "setting": "HEK293 [3]", "result": "3.06 µM (active)"},
      {"measurement": "AC50", "setting": "[4]", "result": "37.8 µM (active)"},
      {"measurement": "IC50", "setting": "HEK293 [5]", "result": "0.95 µM (active)"},
      {"measurement": "IC50", "setting": "Protein skinhead-1", "result": "> 100 µM (inactive)"},
      {"measurement": "IC50", "setting": "HEK293 [6]", "result": "> 20 µM (inactive)"}
    ]},
    {"compound": "Sc1cnc2ccccc2n1", "values": [
      {"measurement": "IC50", "setting": "[7]", "result": "7.85 µM (active)"},
      {"measurement": "IC50", "setting": "[8]", "result": "> 100 µM (inactive)"}
    ]},
    {"compound": "Cc1ccccc1NC(=O)c1ccc(N/N=C/c2ccccc2O)c([N+](=O)[O-])c1", "values": [
      {"measurement": "IC50", "setting": "SUMO-activating enzyme", "result": "67.3 µM (active)"},
      {"measurement": "AC50", "setting": "Cytochrome P450 3A4", "result": "4.47 µM (inconclusive)"},
      {"measurement": "IC50", "setting": "[9]", "result": "18.9 µM (not active)"},
      {"measurement": "AC50", "setting": "Cytochrome P450 1A2", "result": "14.1 µM (inconclusive)"},
      {"measurement": "AC50", "setting": "Cytochrome P450 2C9", "result": "inconclusive"}
    ]},
    {"compound": "COc1cccc(OC)c1C(=O)Oc1ccc2c(c1)O/C(=C\\c1ccncc1)C2=O", "values": [
      {"measurement": "EC50", "setting": "[10]", "result": "15.9 µM (active)"}
    ]},
    {"compound": "O=C1NC(=O)N(c2ccccc2)C(=O)/C1=C\\C=C\\Nc1ccccc1", "values": [
      {"measurement": "IC50", "setting": "Insulin-degrading enzyme", "result": "> 55.9 µM (not active)"},
      {"measurement": "IC50", "setting": "[11]", "result": "> 55.7 µM (not active)"}
    ]},
    {"compound": "c1ccc(Cn2c(CNc3nc4ccccc4n3CCN3CCCCC3)nc3ccccc32)cc1", "values": [
      {"measurement": "CC50", "setting": "[12]", "result": "27.1 µM (active)"},
      {"measurement": "IC50", "setting": "[13]", "result": "> 64.6 µM (inactive)"},
      {"measurement": "IC50", "setting": "Melanocortin receptor 4", "result": "> 64.6 µM (inactive)"},
      {"measurement": "IC50", "setting": "[14]", "result": "> 100 µM (inactive)"}
    ]}
  ]
}
